Laboratory results published in ChEMBL document CHEMBL2163191, “Antiallergic activity profile in vitro RBL-2H3 and in vivo passive cutaneous anaphylaxis mouse model of new sila-substituted 1,3,4-oxadiazoles” (J Med Chem, 2012).
Active and inactive are the calls of the source. No cut-off for these calls is given here.

Key:
[1] = test system: RBL-2H3; experiment: Cytotoxicity against IgE/Ag-stimulated rat RBL2H3 cells at 50 to 200 uM incubated for 23 hrs by Ez-cytox assay; assay type: cell-based; conditions: rbl-2h3, 23 h
[2] = test system: RBL-2H3; experiment: Inhibition of TNFalpha mRNA expression in IgE/Ag-stimulated rat RBL2H3 cells incubated in presence of DNP-HSA for 1 hr post compound dosing by RT-PCR; assay type: functional, cell-based
[3] = test system: RBL-2H3; experiment: Inhibition of PI3K-mediated Akt phosphorylation in IgE/Ag-induced rat RBL2H3 cells incubated in presence of DNP-HSA for 1 hr post compound dosing by Western blotting; assay type: cell-based
[4] = test system: RBL-2H3; experiment: Antidegranulation effect in DNP-HSA induced rat RBL2H3 cells assessed as IgE/Ag complex-induced degranulation preincubated for 30 mins before DNP-HSA challenge for 15 mins by beta-hexosaminidase release based microplate reader method; assay type: functional, cell-based
[5] = test system: Mus musculus; experiment: Antiallergic activity in IgE/Ag-induced passive cutaneous anaphylactic ICR mouse model injected with DNP-HSA-Evans blue dye post DNP-IgE challenge at 50 to 100 mg/kg, po 1 hr before antigenic challenge measured after 2 hrs post IgE/Ag challenge; assay type: functional, organism-based
[6] = test system: Mus musculus; experiment: Antiallergic activity in IgE/Ag-induced passive cutaneous anaphylactic ICR mouse model injected with DNP-HSA-Evans blue dye post DNP-IgE challenge at 50 mg/kg, po 1 hr before antigenic challenge measured after 2 hrs post IgE/Ag challenge; assay type: functional, organism-based; parameters: dose 50 mg/kg

Row | Compound | Activity [1] | inhibition [2] | inhibition [3] | Activity [4] | Activity [5] | Activity [6]
1 | C[Si](C)(C)CS(=O)(=O)Cc1nnc(-c2ccc(Cl)cc2)o1 | Non-toxic | Dose-dependent effect | Dose-dependent effect | Dose-dependent effect | Active | –
2 | CC(C)(C)CS(=O)(=O)Cc1nnc(-c2ccc(Cl)cc2)o1 | – | – | – | inactive | – | –
3 | CN(C)CCOC(c1ccccc1)c1ccccc1 | – | – | – | – | – | Active
